US8765773B2, “Substituted hydroxamic acids and uses thereof” (Millennium Pharmaceuticals, Inc., priority 2010, dated 2014)

These compounds were tested against T1, purified human HDAC6 (Homo sapiens, UniProt Q9UBN7) (assay: HDAC6 Enzyme Assay). Conditions: compound concentration 0.37 μM, read-out: Percent Inhibition.
T1 construct: purchased BPS Bioscience 5006
T1 sequence (Q9UBN7 1-1215): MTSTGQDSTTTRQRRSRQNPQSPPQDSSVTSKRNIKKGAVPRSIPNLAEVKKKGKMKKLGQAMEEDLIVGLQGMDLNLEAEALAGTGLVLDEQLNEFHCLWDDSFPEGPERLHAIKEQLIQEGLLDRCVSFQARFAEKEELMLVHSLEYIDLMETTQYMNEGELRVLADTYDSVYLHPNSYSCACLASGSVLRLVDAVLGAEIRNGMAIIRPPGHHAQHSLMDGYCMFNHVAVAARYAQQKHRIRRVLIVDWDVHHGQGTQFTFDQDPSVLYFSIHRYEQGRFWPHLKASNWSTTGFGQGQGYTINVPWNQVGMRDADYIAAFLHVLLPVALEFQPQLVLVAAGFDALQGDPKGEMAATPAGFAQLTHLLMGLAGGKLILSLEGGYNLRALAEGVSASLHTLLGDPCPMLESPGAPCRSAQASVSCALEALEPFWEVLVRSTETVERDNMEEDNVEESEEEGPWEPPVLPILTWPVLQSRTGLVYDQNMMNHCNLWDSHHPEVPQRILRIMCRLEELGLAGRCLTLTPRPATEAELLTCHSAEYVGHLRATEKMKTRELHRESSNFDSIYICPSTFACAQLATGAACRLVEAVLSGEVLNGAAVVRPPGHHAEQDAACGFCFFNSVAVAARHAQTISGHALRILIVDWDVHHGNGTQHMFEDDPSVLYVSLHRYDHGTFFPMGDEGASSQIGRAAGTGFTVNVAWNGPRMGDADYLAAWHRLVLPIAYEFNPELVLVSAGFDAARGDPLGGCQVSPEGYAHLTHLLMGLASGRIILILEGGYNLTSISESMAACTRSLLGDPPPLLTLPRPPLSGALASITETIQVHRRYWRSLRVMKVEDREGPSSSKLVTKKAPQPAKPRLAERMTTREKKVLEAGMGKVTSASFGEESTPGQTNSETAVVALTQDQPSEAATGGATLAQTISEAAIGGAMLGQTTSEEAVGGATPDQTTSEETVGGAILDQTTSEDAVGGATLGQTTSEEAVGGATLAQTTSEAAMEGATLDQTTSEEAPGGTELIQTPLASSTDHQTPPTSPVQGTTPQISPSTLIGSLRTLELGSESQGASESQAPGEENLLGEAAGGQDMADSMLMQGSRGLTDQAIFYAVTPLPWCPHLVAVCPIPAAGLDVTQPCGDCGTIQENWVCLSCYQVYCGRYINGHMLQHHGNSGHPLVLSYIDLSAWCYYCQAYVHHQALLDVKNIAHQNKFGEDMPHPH
Format: biochemical
Outline: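 Readout is AMC fluorescence (Ex 340 nm, Em 460 nm) after trypsin cleavage of the deacetylated Ac-Arg-Gly-Lys(Ac)-AMC product. Reaction: purified human HDAC6, compound or vehicle, 1 hour, 30° C, quenched by trichostatin A. Single-concentration percent inhibition or IC50 calculated versus DMSO-treated samples.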
In the case of `O=C(NO)c1ccc2ncn(CCC(c3ccccc3)C3CCCCC3)c(=O)c2c1` (stereo not drawn) [Compound I-340, 3-(3-cyclohexyl-3-phenylpropyl)-N-hydroxy-4-oxo-3,4-dihydroquinazoline-6-carboxamide], the inhibition at 0.37 µM is reported as 94.9%.
With `CS(=O)(=O)c1cccc(-c2cccc(CCn3cnc4ccc(C(=O)NO)cc4c3=O)c2)c1` [Compound I-341, N-hydroxy-3-{2-[3′-(methylsulfonyl)biphenyl-3-yl]ethyl}-4-oxo-3,4-dihydroquinazoline-6-carboxamide] the inhibition at 0.37 µM was 94.5%.
Work on `CC(C)c1cccc(-c2cccc(CCn3cnc4ccc(C(=O)NO)cc4c3=O)c2)c1` [Compound I-342, N-hydroxy-3-[2-(3′-isopropylbiphenyl-3-yl)ethyl]-4-oxo-3,4-dihydroquinazoline-6-carboxamide] yielded an inhibition at 0.37 µM of 69.5%.
Work on `O=C(NO)c1ccc2ccn(CCC3CCNCC3)c(=O)c2c1` [Compound I-343, N-hydroxy-1-oxo-2-(2-piperidin-4-ylethyl)-1,2-dihydroisoquinoline-7-carboxamide] yielded an inhibition at 0.37 µM of 91.3%.
Work on `O=C(NO)c1ccc2ccn(CCc3ccccn3)c(=O)c2c1` [Compound I-344, N-hydroxy-1-oxo-2-(2-pyridin-2-ylethyl)-1,2-dihydroisoquinoline-7-carboxamide] yielded an inhibition at 0.37 µM of 93.1%.
`O=C(NO)c1ccc2ncn(CCc3cccc(-c4cc(Cl)cc(Cl)c4)c3)c(=O)c2c1` [Compound I-345, 3-[2-(3′,5′-dichlorobiphenyl-3-yl)ethyl]-N-hydroxy-4-oxo-3,4-dihydroquinazoline-6-carboxamide] was tested, and the inhibition at 0.37 µM was 81.9%.
`O=C(NO)c1ccc2ccn(-c3ccccc3F)c(=O)c2c1` [Compound I-346, 2-(2-fluorophenyl)-N-hydroxy-1-oxo-1,2-dihydroisoquinoline-7-carboxamide] showed an inhibition at 0.37 µM of 87%.
For `O=C(NO)c1ccc2ncn(CCc3cccc(-c4c(F)cccc4F)c3)c(=O)c2c1` [Compound I-347, 3-[2-(2′,6′-difluorobiphenyl-3-yl)ethyl]-N-hydroxy-4-oxo-3,4-dihydroquinazoline-6-carboxamide], the inhibition at 0.37 µM was 63.7%.
Work on `COCc1cn(Cc2ccccc2)c(=O)c2cc(C(=O)NO)ccc12` [Compound I-394, 2-benzyl-N-hydroxy-4-(methoxymethyl)-1-oxo-1,2-dihydroisoquinoline-7-carboxamide] yielded an inhibition at 0.37 µM of 49.2%.
For `COc1ccc(-c2nc3cc(C(=O)NO)ccc3c(=O)[nH]2)cc1` [Compound I-395, N-hydroxy-2-(4-methoxyphenyl)-4-oxo-3,4-dihydroquinazoline-7-carboxamide], the inhibition at 0.37 µM was 80.8%.
With `O=C(NO)c1ccc2c(=O)[nH]c(-c3cccc(-c4ccncc4)c3)nc2c1` [Compound I-396, N-hydroxy-4-oxo-2-(3-pyridin-4-ylphenyl)-3,4-dihydroquinazoline-7-carboxamide] the inhibition at 0.37 µM was 62.3%.
`O=C(NO)c1ccc2ccn(-c3ccnc(NC(=O)C4CC4)c3)c(=O)c2c1` [Compound I-397, 2-{2-[(cyclopropylcarbonyl)amino]pyridin-4-yl}-N-hydroxy-1-oxo-1,2-dihydroisoquinoline-7-carboxamide] showed an inhibition at 0.37 µM of 96.3%.
Compound `O=C(NO)c1ccc2c(=O)[nH]c(-c3cccnc3)nc2c1` [Compound I-398, N-hydroxy-4-oxo-2-pyridin-3-yl-3,4-dihydroquinazoline-7-carboxamide] has an inhibition at 0.37 µM of 79%.
Compound `CCn1nccc1-c1nc2cc(C(=O)NO)ccc2c(=O)[nH]1` [Compound I-399, 2-(1-ethyl-1H-pyrazol-5-yl)-N-hydroxy-4-oxo-3,4-dihydroquinazoline-7-carboxamide] has an inhibition at 0.37 µM of 61.8%.
With `Cc1cn(Cc2ccccc2)c(=O)c2cc(C(=O)NO)ccc12` [Compound I-400, 2-benzyl-N-hydroxy-4-methyl-1-oxo-1,2-dihydroisoquinoline-7-carboxamide] the inhibition at 0.37 µM was 73.9%.
Work on `O=C(NO)c1ccc2c(=O)[nH]c(-c3ccccc3)nc2c1` [Compound I-401, N-hydroxy-4-oxo-2-phenyl-3,4-dihydroquinazoline-7-carboxamide] yielded an inhibition at 0.37 µM of 88.2%.
`CC(C)Cc1nc2cc(C(=O)NO)ccc2c(=O)[nH]1` [Compound I-402, N-hydroxy-2-isobutyl-4-oxo-3,4-dihydroquinazoline-7-carboxamide] gave an inhibition at 0.37 µM of 91.7%.
Compound `Cc1ncc(-c2nc3cc(C(=O)NO)ccc3c(=O)[nH]2)n1C` [Compound I-403, 2-(1,2-dimethyl-1H-imidazol-5-yl)-N-hydroxy-4-oxo-3,4-dihydroquinazoline-7-carboxamide] has an inhibition at 0.37 µM of -4.61%.
`O=C(NO)c1ccc2c(=O)[nH]c(-c3nc4ccccc4o3)nc2c1` [Compound I-404, 2-(1,3-benzoxazol-2-yl)-N-hydroxy-4-oxo-3,4-dihydroquinazoline-7-carboxamide] was tested, and the inhibition at 0.37 µM was 5.79%.
`O=C(NO)c1ccc2c(=O)[nH]c(-c3ccc4ccccc4c3)nc2c1` [Compound I-405, N-hydroxy-2-(2-naphthyl)-4-oxo-3,4-dihydroquinazoline-7-carboxamide] gave an inhibition at 0.37 µM of 92%.
Work on `Cc1ccccc1Cc1nc2cc(C(=O)NO)ccc2c(=O)[nH]1` [Compound I-406, N-hydroxy-2-(2-methylbenzyl)-4-oxo-3,4-dihydroquinazoline-7-carboxamide] yielded an inhibition at 0.37 µM of 86.6%.
In the case of `NCc1cn(Cc2ccccc2)c(=O)c2cc(C(=O)NO)ccc12` [Compound I-407, 4-(aminomethyl)-2-benzyl-N-hydroxy-1-oxo-1,2-dihydroisoquinoline-7-carboxamide], the inhibition at 0.37 µM is reported as 51.1%.
`O=C(NO)c1ccc2c(=O)[nH]c(CCc3ccccc3)nc2c1` [Compound I-408, N-hydroxy-4-oxo-2-(2-phenylethyl)-3,4-dihydroquinazoline-7-carboxamide] was tested, and the inhibition at 0.37 µM was 94.9%.
Work on `O=C(NO)c1ccc2c(=O)[nH]c(CC3CCCCC3)nc2c1` [Compound I-409, 2-(cyclohexylmethyl)-N-hydroxy-4-oxo-3,4-dihydroquinazoline-7-carboxamide] yielded an inhibition at 0.37 µM of 92.5%.
Work on `COc1ccncc1-c1nc2cc(C(=O)NO)ccc2c(=O)[nH]1` [Compound I-410, N-hydroxy-2-(4-methoxypyridin-3-yl)-4-oxo-3,4-dihydroquinazoline-7-carboxamide] yielded an inhibition at 0.37 µM of 68.1%.
`O=C(NO)c1ccc2c(=O)[nH]c(Cc3ccccc3F)nc2c1` [Compound I-411, 2-(2-fluorobenzyl)-N-hydroxy-4-oxo-3,4-dihydroquinazoline-7-carboxamide] gave an inhibition at 0.37 µM of 85.1%.
Compound `Cc1ccc(CCc2nc3cc(C(=O)NO)ccc3c(=O)[nH]2)o1` [Compound I-412, N-hydroxy-2-[2-(5-methyl-2-furyl)ethyl]-4-oxo-3,4-dihydroquinazoline-7-carboxamide] has an inhibition at 0.37 µM of 93%.
Compound `CC(C)(c1ccccc1)n1cnc2ccc(C(=O)NO)cc2c1=O` [Compound I-413, N-hydroxy-3-(1-methyl-1-phenylethyl)-4-oxo-3,4-dihydroquinazoline-6-carboxamide] has an inhibition at 0.37 µM of 94.1%.
`O=C(NO)c1ccc2c(=O)[nH]c(-c3ccccc3Cl)nc2c1` [Compound I-414, 2-(2-chlorophenyl)-N-hydroxy-4-oxo-3,4-dihydroquinazoline-7-carboxamide] showed an inhibition at 0.37 µM of 95.4%.
`Cn1c(-c2nc3cc(C(=O)NO)ccc3c(=O)[nH]2)cc2ccccc21` [Compound I-415, N-hydroxy-2-(1-methyl-1H-indol-2-yl)-4-oxo-3,4-dihydroquinazoline-7-carboxamide] showed an inhibition at 0.37 µM of 79.9%.
`O=C(NO)c1ccc2c(=O)[nH]c(C3CCCCC3)nc2c1` [Compound I-416, 2-cyclohexyl-N-hydroxy-4-oxo-3,4-dihydroquinazoline-7-carboxamide] showed an inhibition at 0.37 µM of 90%.
For `Cc1ccc(Cc2nc3cc(C(=O)NO)ccc3c(=O)[nH]2)c(C)c1` [Compound I-417, 2-(2,4-dimethylbenzyl)-N-hydroxy-4-oxo-3,4-dihydroquinazoline-7-carboxamide], the inhibition at 0.37 µM was 56.7%.
Compound `CNCc1cn(Cc2ccccc2)c(=O)c2cc(C(=O)NO)ccc12` [Compound I-418, 2-benzyl-N-hydroxy-4-[(methylamino)methyl]-1-oxo-1,2-dihydroisoquinoline-7-carboxamide] has an inhibition at 0.37 µM of 29.5%.
